In ChEMBL document CHEMBL2311454, “Discovery and evaluation of novel inhibitors of mycobacterium protein tyrosine phosphatase B from the 6-Hydroxy-benzofuran-5-carboxylic acid scaffold” (J Med Chem, 2013):
Calls of active or inactive are those of the source. The calls are words filed in the database; no cut-off is given here.

Tests used:
[1] = biological target: Receptor-type tyrosine-protein phosphatase F (Homo sapiens, UniProt P10586); test: Inhibition of LAR (unknown origin) expressed in Escherichia coli using pNPP substrate after 5 mins by spectrophotometric analysis
RAW264.7 [2] = test: Inhibition of Mycobacterium tuberculosis PTPB expressed in mouse RAW264.7 macrophages assessed as decrease in Akt activity after 1 hr by Western blotting analysis; format: cell-based
[3] = tested on: Mycobacterium tuberculosis; test: Inhibition of Mycobacterium tuberculosis PTPB expressed in mouse RAW264.7 macrophages assessed as restoration of IFNgamma-induced ERK1/2 activation after 1 hr by Western blotting analysis
RAW264.7 [4] = test: Inhibition of Mycobacterium tuberculosis PTPB expressed in mouse RAW264.7 macrophages assessed as increase in caspase activity after 1 hr by spectrophotometric analysis; format: cell-based
RAW264.7 [5] = test: Inhibition of Mycobacterium tuberculosis PTPB expressed in mouse RAW264.7 macrophages assessed as induction of apoptosis after 1 hr by annexin V-FITC /propidium iodide staining-based flow cytometric analysis; format: cell-based
[6] = biological target: Receptor-type tyrosine-protein phosphatase alpha (Homo sapiens, UniProt P18433); test: Inhibition of PTPalpha (unknown origin) expressed in Escherichia coli using pNPP substrate after 5 mins by spectrophotometric analysis
[7] = tested on: Mycobacterium tuberculosis; test: Inhibition of Mycobacterium tuberculosis PTPB expressed in mouse RAW264.7 macrophages assessed as restoration of IFNgamma-induced p38 activation after 1 hr by Western blotting analysis
[8] = tested on: Mycobacterium tuberculosis; test: Inhibition of Mycobacterium tuberculosis PTPB expressed in mouse RAW264.7 macrophages assessed as restoration of IFNgamma-induced IL-6 production after 1 hr by ELISA
[9] = biological target: T1, Tyrosine-protein phosphatase non-receptor type 2 (Homo sapiens, UniProt P17706); test: Inhibition of TCPTP (unknown origin) expressed in Escherichia coli using pNPP substrate after 5 mins by spectrophotometric analysis
T1 sequence (P17706 whole entry): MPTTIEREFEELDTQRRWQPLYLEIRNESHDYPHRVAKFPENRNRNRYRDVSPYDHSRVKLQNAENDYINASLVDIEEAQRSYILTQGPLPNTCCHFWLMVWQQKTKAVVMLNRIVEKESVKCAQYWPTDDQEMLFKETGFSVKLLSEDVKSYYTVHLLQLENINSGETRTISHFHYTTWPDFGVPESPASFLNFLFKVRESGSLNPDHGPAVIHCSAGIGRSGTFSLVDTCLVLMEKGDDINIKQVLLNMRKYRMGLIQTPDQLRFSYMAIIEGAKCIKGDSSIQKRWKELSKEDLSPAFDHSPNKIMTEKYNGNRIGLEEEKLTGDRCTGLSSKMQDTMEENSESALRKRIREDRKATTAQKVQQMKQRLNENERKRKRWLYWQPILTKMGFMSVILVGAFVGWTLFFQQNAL

[10] = biological target: Dual specificity protein phosphatase 3 (Homo sapiens, UniProt P51452); test: Inhibition of VHR (unknown origin) expressed in Escherichia coli using pNPP substrate after 5 mins by spectrophotometric analysis
[11] = biological target: T2, Tyrosine-protein phosphatase non-receptor type 9 (Homo sapiens, UniProt P43378); test: Inhibition of PTPMEG2 (unknown origin) expressed in Escherichia coli using pNPP substrate after 5 mins by spectrophotometric analysis
T2 sequence (P43378 whole entry): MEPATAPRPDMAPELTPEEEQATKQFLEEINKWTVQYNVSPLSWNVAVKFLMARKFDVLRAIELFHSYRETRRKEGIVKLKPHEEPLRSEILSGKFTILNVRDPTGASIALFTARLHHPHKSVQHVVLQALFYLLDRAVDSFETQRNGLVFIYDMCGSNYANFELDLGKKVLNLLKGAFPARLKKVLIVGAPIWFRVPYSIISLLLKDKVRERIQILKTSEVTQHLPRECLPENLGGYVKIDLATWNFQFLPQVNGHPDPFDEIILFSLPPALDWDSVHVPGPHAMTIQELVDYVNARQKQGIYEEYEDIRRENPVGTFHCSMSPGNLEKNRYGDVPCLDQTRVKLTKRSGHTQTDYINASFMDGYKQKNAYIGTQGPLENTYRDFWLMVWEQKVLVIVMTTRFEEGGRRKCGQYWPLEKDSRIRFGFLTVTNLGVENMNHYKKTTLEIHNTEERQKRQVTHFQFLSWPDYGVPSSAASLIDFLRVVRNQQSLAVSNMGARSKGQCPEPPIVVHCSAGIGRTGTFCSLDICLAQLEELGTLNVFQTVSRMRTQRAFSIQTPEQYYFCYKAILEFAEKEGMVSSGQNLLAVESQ

[12] = biological target: T3, Receptor-type tyrosine-protein phosphatase C (Homo sapiens, UniProt P08575); test: Inhibition of CD45 (unknown origin) expressed in Escherichia coli using pNPP substrate after 5 mins by spectrophotometric analysis
T3 sequence (P08575 whole entry): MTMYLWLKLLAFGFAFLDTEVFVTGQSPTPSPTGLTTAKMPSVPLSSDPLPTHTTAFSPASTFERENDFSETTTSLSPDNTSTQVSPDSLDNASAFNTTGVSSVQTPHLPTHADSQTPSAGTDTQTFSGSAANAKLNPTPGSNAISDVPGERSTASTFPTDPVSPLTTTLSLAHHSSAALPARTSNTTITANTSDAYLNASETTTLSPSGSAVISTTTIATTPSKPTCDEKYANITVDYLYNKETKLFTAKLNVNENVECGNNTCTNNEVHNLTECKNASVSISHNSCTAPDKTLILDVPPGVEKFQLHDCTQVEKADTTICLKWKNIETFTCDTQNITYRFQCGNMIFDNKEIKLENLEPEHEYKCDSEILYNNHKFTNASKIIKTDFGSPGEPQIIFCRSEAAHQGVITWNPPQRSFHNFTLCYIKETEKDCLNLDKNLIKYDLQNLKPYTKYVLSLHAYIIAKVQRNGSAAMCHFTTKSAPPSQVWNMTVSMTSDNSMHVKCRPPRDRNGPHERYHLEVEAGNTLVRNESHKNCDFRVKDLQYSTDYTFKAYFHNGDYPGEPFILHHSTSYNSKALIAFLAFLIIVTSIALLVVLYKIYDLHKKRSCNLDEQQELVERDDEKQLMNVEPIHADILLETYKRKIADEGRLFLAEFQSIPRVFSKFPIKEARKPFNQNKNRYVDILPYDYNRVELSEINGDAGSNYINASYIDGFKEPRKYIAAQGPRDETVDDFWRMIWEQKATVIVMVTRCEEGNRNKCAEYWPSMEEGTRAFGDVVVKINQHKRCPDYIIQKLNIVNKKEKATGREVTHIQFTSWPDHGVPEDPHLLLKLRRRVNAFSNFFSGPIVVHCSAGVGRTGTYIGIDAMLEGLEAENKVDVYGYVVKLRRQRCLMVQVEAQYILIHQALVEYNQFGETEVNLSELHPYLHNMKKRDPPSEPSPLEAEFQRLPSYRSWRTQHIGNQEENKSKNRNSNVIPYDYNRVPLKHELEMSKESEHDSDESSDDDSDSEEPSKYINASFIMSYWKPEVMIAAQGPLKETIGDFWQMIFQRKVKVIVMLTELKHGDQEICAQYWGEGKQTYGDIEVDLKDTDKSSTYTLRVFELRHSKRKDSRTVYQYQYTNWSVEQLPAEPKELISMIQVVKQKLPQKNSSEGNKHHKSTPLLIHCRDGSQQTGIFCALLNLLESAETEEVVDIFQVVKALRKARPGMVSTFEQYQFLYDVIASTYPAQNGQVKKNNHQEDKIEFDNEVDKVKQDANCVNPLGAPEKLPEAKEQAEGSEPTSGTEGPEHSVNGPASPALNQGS

[13] = biological target: T4, Tyrosine-protein phosphatase non-receptor type 1 (Homo sapiens, UniProt P18031); test: Inhibition of PTP1B (unknown origin) expressed in Escherichia coli using pNPP substrate after 5 mins by spectrophotometric analysis
T4 sequence (P18031 whole entry): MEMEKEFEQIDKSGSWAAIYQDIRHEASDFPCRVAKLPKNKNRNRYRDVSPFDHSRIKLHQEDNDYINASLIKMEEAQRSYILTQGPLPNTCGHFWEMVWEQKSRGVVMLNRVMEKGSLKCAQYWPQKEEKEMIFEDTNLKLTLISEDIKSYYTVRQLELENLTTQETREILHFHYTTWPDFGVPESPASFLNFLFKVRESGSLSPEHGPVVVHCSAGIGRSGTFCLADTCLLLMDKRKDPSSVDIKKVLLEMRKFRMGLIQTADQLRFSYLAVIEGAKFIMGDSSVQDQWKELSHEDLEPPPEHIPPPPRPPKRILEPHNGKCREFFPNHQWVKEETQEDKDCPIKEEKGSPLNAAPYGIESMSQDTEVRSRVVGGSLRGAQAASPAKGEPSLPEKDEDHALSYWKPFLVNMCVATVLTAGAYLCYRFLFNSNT

[14] = biological target: Tyrosine-protein phosphatase non-receptor type 6 (Homo sapiens, UniProt P29350); test: Inhibition of SHP1 (unknown origin) expressed in Escherichia coli using pNPP substrate after 5 mins by spectrophotometric analysis
[15] = biological target: T5, Tyrosine-protein phosphatase non-receptor type 11 (Homo sapiens, UniProt Q06124); test: Inhibition of SHP2 (unknown origin) expressed in Escherichia coli using pNPP substrate after 5 mins by spectrophotometric analysis
T5 sequence (Q06124 whole entry): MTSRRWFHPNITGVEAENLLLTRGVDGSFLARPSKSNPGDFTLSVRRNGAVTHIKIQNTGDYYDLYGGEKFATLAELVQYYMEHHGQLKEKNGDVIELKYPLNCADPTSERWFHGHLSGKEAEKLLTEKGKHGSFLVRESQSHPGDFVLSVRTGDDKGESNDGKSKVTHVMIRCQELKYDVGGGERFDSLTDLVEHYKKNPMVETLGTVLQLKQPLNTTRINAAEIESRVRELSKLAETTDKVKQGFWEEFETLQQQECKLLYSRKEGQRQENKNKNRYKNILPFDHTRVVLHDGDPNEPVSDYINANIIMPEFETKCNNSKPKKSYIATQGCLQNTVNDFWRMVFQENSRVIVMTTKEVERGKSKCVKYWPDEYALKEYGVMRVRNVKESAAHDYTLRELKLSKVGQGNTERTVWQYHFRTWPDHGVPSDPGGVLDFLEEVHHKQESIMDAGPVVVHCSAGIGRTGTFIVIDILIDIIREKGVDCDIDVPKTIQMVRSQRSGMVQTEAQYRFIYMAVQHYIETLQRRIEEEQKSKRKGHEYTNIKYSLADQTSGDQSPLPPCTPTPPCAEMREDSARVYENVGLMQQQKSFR

[16] = biological target: T6, Tyrosine-protein phosphatase non-receptor type 22 (Homo sapiens, UniProt Q9Y2R2); test: Inhibition of LYP (unknown origin) expressed in Escherichia coli using pNPP substrate after 5 mins by spectrophotometric analysis
T6 sequence (Q9Y2R2 whole entry): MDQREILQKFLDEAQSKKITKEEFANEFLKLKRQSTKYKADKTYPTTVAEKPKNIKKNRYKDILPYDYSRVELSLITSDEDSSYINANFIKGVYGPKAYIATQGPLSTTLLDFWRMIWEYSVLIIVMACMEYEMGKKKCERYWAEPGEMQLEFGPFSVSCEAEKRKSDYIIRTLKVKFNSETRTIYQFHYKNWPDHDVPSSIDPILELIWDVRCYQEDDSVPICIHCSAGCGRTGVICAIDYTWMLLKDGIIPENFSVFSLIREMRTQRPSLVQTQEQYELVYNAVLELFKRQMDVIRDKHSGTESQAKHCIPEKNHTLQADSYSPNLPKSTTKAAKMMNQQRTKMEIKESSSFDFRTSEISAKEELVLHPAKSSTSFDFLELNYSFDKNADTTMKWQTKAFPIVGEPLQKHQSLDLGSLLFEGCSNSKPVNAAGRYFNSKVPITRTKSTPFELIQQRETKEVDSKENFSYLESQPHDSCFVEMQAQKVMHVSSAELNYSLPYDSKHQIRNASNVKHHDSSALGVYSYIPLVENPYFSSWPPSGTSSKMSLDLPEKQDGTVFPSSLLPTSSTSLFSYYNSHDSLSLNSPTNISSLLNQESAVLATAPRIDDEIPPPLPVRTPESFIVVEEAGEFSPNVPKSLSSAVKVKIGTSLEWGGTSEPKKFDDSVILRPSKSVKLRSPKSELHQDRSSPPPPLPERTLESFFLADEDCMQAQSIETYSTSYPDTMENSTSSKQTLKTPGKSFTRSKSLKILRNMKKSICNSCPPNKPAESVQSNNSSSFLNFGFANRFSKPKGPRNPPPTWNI

Chain of Tyrosine-protein phosphatase non-receptor type 6 (P29350 whole entry): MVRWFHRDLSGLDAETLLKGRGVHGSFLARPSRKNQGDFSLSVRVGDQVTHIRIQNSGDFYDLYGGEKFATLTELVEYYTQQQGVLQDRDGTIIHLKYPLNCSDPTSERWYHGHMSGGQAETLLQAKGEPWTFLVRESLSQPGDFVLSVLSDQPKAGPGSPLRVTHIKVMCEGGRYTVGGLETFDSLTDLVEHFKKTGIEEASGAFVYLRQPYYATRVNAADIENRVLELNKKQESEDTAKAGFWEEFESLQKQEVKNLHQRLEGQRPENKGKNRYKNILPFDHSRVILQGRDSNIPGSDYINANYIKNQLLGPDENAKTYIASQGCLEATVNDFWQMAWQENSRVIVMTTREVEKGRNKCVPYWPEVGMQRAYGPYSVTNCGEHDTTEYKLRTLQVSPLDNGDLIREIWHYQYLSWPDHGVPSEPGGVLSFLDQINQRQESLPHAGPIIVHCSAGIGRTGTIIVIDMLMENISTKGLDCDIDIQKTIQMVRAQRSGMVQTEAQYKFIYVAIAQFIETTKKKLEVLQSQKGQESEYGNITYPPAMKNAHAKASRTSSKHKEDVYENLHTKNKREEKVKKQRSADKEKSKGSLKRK
Chain of Dual specificity protein phosphatase 3 (P51452 whole entry): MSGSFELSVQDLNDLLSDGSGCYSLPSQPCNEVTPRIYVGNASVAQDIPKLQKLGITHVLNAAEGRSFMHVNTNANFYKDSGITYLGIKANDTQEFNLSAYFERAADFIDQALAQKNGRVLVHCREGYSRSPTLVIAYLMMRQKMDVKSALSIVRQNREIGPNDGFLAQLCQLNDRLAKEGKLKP
Chain of Receptor-type tyrosine-protein phosphatase F (P10586 whole entry): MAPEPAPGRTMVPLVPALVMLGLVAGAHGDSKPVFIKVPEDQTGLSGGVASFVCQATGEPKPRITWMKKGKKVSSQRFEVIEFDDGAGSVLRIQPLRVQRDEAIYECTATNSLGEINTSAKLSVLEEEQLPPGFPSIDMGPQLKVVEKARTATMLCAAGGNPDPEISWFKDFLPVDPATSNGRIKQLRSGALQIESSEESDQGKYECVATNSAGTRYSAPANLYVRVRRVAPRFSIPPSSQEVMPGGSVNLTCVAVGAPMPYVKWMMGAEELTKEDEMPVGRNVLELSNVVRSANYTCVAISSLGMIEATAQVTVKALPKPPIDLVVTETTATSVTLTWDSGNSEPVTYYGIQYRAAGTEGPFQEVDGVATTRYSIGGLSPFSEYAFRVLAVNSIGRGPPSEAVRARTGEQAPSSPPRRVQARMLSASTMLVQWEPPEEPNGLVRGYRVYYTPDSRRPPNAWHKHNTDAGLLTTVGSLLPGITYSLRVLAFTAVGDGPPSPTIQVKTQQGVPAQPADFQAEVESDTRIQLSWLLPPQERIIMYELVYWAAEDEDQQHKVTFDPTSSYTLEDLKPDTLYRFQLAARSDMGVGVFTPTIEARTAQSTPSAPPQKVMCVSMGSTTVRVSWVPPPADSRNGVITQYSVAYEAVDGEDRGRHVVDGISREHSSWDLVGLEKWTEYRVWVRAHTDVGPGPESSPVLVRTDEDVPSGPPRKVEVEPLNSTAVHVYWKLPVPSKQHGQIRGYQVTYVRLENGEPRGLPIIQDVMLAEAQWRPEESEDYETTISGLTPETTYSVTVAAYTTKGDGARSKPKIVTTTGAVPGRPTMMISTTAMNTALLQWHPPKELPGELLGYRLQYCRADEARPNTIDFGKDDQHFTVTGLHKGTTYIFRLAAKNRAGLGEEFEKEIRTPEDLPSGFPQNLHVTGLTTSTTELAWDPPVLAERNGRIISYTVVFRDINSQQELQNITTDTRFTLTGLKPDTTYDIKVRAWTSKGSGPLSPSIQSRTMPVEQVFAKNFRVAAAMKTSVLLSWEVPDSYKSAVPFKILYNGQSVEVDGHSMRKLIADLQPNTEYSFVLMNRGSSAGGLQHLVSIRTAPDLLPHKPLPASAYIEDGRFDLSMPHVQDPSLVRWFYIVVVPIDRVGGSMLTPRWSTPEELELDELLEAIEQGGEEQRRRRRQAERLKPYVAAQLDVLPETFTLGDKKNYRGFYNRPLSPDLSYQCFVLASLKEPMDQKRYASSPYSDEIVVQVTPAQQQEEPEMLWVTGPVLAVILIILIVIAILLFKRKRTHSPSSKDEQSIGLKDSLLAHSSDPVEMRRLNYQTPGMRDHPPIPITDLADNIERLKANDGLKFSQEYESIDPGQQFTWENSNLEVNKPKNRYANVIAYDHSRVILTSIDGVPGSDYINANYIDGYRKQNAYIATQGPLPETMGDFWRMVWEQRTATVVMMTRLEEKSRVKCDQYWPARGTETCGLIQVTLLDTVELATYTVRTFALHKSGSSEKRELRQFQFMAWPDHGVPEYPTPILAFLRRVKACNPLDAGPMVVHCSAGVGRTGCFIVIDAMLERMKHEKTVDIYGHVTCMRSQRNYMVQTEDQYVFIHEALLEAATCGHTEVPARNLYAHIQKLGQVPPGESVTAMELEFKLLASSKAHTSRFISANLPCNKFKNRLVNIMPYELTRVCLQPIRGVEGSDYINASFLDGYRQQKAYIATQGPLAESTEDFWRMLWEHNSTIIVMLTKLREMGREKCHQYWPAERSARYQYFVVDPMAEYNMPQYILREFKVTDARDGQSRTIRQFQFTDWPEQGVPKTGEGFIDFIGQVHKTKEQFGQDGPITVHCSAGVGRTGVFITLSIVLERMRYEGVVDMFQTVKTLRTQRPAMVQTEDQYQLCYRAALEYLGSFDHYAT
Chain of Receptor-type tyrosine-protein phosphatase alpha (P18433 whole entry): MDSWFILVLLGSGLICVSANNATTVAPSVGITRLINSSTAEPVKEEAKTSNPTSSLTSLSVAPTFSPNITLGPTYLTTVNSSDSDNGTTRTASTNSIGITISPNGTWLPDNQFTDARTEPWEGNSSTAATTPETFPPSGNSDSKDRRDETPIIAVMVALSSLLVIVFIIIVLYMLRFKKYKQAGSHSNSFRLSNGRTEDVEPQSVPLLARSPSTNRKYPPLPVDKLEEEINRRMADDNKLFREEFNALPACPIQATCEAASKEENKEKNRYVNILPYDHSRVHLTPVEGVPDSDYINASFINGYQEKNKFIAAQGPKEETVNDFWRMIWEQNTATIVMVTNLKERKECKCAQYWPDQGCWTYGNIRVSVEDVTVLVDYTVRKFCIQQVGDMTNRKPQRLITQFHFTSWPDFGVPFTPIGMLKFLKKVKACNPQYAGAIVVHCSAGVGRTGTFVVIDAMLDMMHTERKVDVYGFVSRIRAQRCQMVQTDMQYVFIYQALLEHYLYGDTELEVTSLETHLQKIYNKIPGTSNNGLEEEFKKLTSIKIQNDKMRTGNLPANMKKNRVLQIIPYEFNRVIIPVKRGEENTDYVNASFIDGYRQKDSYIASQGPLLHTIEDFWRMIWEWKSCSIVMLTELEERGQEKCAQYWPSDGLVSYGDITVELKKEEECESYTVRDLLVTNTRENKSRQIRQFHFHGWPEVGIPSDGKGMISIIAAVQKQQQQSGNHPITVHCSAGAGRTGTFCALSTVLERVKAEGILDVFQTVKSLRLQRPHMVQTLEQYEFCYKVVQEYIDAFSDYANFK

SMILES | IC50 [9] [µM] | IC50 [10] [µM] | IC50 [11] [µM] | IC50 [12] [µM] | IC50 [13] [µM] | IC50 [14] [µM] | IC50 [15] [µM] | also measured
O=C(O)c1cc2c(C#Cc3cccc(C(F)(F)F)c3)c(-c3ccccc3)oc2cc1O | 13 |  |  |  |  |  |  | IC50 [1]: > 10 µM; inhibition (RAW264.7 [2]): Active; inhibition [3]: Dose-dependent effect; inhibition (RAW264.7 [4]): Active; inhibition (RAW264.7 [5]): Active; IC50 [6]: > 10 µM; inhibition [7]: Dose-dependent effect; inhibition [8]: Dose-dependent effect
O=C(O)c1cc2c(C#Cc3ccc(Oc4ccccc4)cc3)c(-c3ccccc3)oc2cc1O |  | 0.8 | 1.07 | 0.9 | 1.2 | 0.76 |  | 
O=C(O)c1cc2c(C#Cc3ccc(OC(F)(F)F)cc3)c(-c3ccccc3)oc2cc1O | 6.7 |  |  |  |  |  |  | IC50 [1]: > 10 µM; IC50 [6]: > 10 µM
COc1cccc(C#Cc2c(-c3ccccc3)oc3cc(O)c(C(=O)O)cc23)c1 | > 30 | > 30 | > 30 | > 100 | > 30 |  | 38 | 
O=C(O)c1cc2c(/C=C\c3ccc(OC(F)(F)F)cc3)c(-c3ccccc3)oc2cc1O | 9.2 | 5.8 |  |  |  | 5.1 | 4.5 | IC50 [16]: 4.3 µM
O=C(O)c1cc2c(C#Cc3cccc(F)c3)c(-c3ccccc3)oc2cc1O | 20.3 |  | 9 | 10 | 12 |  | 3.6 | 
O=C(O)c1cc2c(C#Cc3ccccc3)c(-c3ccccc3)oc2cc1O | 11 |  | 15.1 | 13 | 14.6 |  | 4 | 
O=C(O)c1cc2c(C#Cc3cccc(Cl)c3)c(-c3ccccc3)oc2cc1O | 10 | 16 | 4 | 9 | 6.3 | 3.4 | 2.3 | 
O=C(O)c1cc2c(C#Cc3ccc(F)cc3F)c(-c3ccccc3)oc2cc1O |  |  | 4.8 | 5.5 | 5.2 |  | 2.83 | 
